Results reported in a melting point compilation (Tetko et al.; mined from patent text by program, amines drawn as free bases though some values may be those of a salt).

For `COC(=O)COc1ccc(C(=O)NNC(=O)c2ccc(C#N)cc2)cc1`, the melting point was 220 to 222 °C. In the case of `Cc1nc2c(N)nc3c(c2n1CC(C)(C)OCCS(C)(=O)=O)CCCC3`, the melting point is reported as 226 to 229 °C. `CC1(C)C(=CC=C2C(=O)c3ccccc3C2=C(C#N)C#N)N2CCc3cccc1c32` gave a melting point of 277 °C. Work on `COC(=O)c1[nH]c(C)c(C)c1OCC1CO1` (stereo not drawn) yielded a melting point of 85 to 87 °C. In the case of `O=C1CCC(N2Cc3c(OCc4cc(Cl)ccc4Cl)cccc3C2=O)C(=O)N1` (stereo not drawn), the melting point is reported as 256 to 258 °C. Molecule `COc1cc(CBr)c(OC)cc1/C=C/c1cc(OC)c(CBr)cc1OC` has a melting point of 165 to 167 °C. `CCOC(=O)C1Cc2ccc(OC)c(Cl)c2O1` (stereo not drawn) gave a melting point of 108 to 110 °C. `CC1CN(c2c(F)cc3c(=O)c(C(=O)O)cn4c3c2CC4C)CC(C)N1C` (single isomer, unassigned; (+)) showed a melting point of 204 to 206 °C. With `COc1cccc(C=O)c1OCc1ccccc1` the melting point was 41 to 43 °C. With `O=C1CCc2nc(-c3ccccc3)ccc21` the melting point was 177 to 178 °C. `CC1(C)CC(=O)c2c(NC3CC3)sc(-c3cc[nH]n3)c2C1` gave a melting point of 232 to 235 °C. For `CCc1ccc2c(=O)c(CSC)cn(C)c2c1`, the melting point was 104 to 106 °C. Molecule `CC1(C)CC(=O)C(C(=O)Nc2ccc(C(F)(F)F)cc2)C(=O)O1` (stereo not drawn) has a melting point of 176 °C. For `CC(C)CC(O)(Cn1ccnn1)c1ccccc1` (stereo not drawn), the melting point was 94 to 95 °C. `N=C(N)NCCNc1c(C(=O)O)cnc2ccccc12` showed a melting point of 267 °C. `O=C1NC(O)c2cccn2-c2ccsc21` (stereo not drawn) gave a melting point of 172 °C. `COc1c(C)c(C)c(OC)c(N)c1N` showed a melting point of 107 to 110 °C. `CNC(=O)c1c(N)n(C2CCCC2)c2nc(Cl)ccc2c1=O` gave a melting point of 256 to 258 °C. For `CCC1CC2C3CCC4=CC(=O)CCC4=C3CCC2(C)C1O` (stereo not drawn), the melting point was 124 to 126 °C. Molecule `COc1ccccc1CNc1cc(C(N)=O)c([N+](=O)[O-])cc1[N+](=O)[O-]` has a melting point of 198 to 202 °C. In the case of `COc1ccc(P2(=O)c3ccccc3CN2c2ccccc2)c(OC)c1` (stereo not drawn), the melting point is reported as 173 to 175 °C. With `COc1ccc(CC(=O)Nc2ccc3c(c2)[C@@H](OCCc2ccccc2)[C@H](O)C(C)(C)O3)cc1` (relative stereo) the melting point was 161 to 162 °C. Molecule `CN1CCC2(CC1)OC(=O)c1ccccc12` has a melting point of 147 to 148 °C. In the case of `Cc1ccccc1Nc1nc(N2CCCC2)nc2ccccc12`, the melting point is reported as 152 to 154 °C. `CN(C)c1nc2cc(NC(=O)c3c(C(=O)N4CCOCC4)cnn3C)ccn2n1` showed a melting point of 196 to 198 °C. For `O=C(Nc1ccc(C(F)(F)F)cc1)Nc1ccc2c(c1)OC(F)(F)O2`, the melting point was 195 to 200 °C. `O=C(O)c1cccnc1N1CCc2ccccc2C1` gave a melting point of 150 to 152 °C. With `CCCCCCc1ccc2c(c1)c1cc(CCCCCC)ccc1n2CCN` the melting point was 56 °C. Work on `CCCC(C(N)=O)C(=O)O` (stereo not drawn) yielded a melting point of 137 °C. Molecule `CCN1c2ccccc2NC(=O)c2cscc21` has a melting point of 201 to 202 °C. `O=C(O)C(=NOCc1ccc(F)cc1)c1csc(NC(=O)C(F)(F)F)n1` showed a melting point of 180 to 182 °C. For `C#CCN(C(=O)c1cnccc1C(F)(F)F)S(=O)(=O)c1cccc(Cl)c1`, the melting point was 82 to 85 °C. With `O=C(Cn1ccnc1[N+](=O)[O-])NCC(F)(F)C(F)(F)F` the melting point was 136 to 137 °C. `CCOC(=O)C[C@H]1c2ccc(OC)cc2CC[C@H]1c1ccc(OC)cc1` (racemic) gave a melting point of 81 °C. For `Cc1nc(N2CCc3ccccc3CC2)c(C#N)c(=O)n1CCO`, the melting point was 164 to 168 °C. Molecule `CC(C)(C)c1ccc(CC2OCCN(Cc3ccccc3)C2=O)cc1` (stereo not drawn) has a melting point of 190 to 193 °C. In the case of `O=C1CCC(N2Cc3cc(CNC(=O)N4CCOCC4)ccc3C2=O)C(=O)N1` (stereo not drawn), the melting point is reported as 208 to 210 °C. With `O=C(O)CCc1cc2cc(C(=O)c3ccccc3)ccc2n1S(=O)(=O)c1ccccc1` the melting point was 138 °C. Work on `CCN(C(=O)c1ccccc1C(c1ccc(O)cc1)c1ccc(O)cc1)c1cccc(C)c1` yielded a melting point of 218 to 220 °C. With `O=C(Nc1cc(-c2cc(Nc3ccc(N4CCNCC4=O)cn3)c(=O)[nH]n2)ccc1F)c1cc2c(s1)CCCC2` the melting point was 285 to 287 °C. With `Clc1nc2ccccc2c2c(CCN3CCN(Cc4ccccc4)CC3)n(-c3ccccc3)nc12` the melting point was 75 to 77 °C. For `Nc1ncc(Oc2ccc(Cl)cc2)c(N2CCNCC2)n1`, the melting point was 93 to 95 °C. `CCOC(=O)c1c(-c2ccc(F)cc2)cc(-c2cccc3c2OCO3)nc1C(C)C` gave a melting point of 148 to 150 °C. Molecule `N[C@@H](Cc1c[nH]cn1)C(=O)N(N)C(=O)C(CC(=O)N1CCOCC1)Cc1cccc2ccccc12` (stereo partly drawn) has a melting point of 115 to 119 °C. `CCCc1c(C(C)C)nn2ccccc12` showed a melting point of 41 to 42 °C. `CCCCc1nc2ccn(Cc3cccc(C(=N)N)c3)c(=O)c2n1Cc1ccc2ccc(C(=N)N)cc2c1` gave a melting point of 190 to 191 °C. In the case of `O=C(O)c1cn(C2CC2)c2nc(O)c(F)cc2c1=O`, the melting point is reported as 325 to 327 °C. Work on `OCc1ccc(-c2ccccc2)cn1` yielded a melting point of 86 to 87 °C. `O=C(N[C@H]1CCC(=O)N2CCC[C@@H](C(=O)O)N2C1=O)OCC1c2ccccc2-c2ccccc21` showed a melting point of 120 to 126 °C. In the case of `CC(C)(C)C=Cc1nn(-c2ccc(F)cc2F)c2c1C1CCC2C1` (stereo not drawn), the melting point is reported as 98 to 101 °C. Work on `Cc1cc(-n2nc(C(F)F)cc2-c2ccc(S(C)(=O)=O)cc2)ccc1Br` yielded a melting point of 141 to 142 °C. Work on `CN1C(=O)CC[C@]2(C)c3ccc(-c4ccc(Cl)cc4)cc3CC[C@@H]12` yielded a melting point of 192 °C. `CCOC(=O)C(=O)Nc1ccc(NC(=O)C(=O)OCC)cc1` gave a melting point of 214 to 217 °C. `CCCc1c(O)c(O)c(C(=O)O)c2cc(Cc3ccccc3)c(C)cc12` gave a melting point of 183 to 184 °C. For `O=C(N[C@H]1CCCNC1=O)c1cccc(F)c1F`, the melting point was 160 to 162 °C. In the case of `O=C(Nc1cc(Cl)cc(Cl)c1)c1cc(Br)ccc1O`, the melting point is reported as 243 to 244 °C. In the case of `CCCC(=O)c1cnc2c(OCCOC)cccc2c1Nc1ccc(F)cc1C`, the melting point is reported as 124 to 125 °C. `Cc1ccccc1-c1ccc(C(=O)Nc2ccc3cc(CN4CCCC4)cnc3c2C)cc1` gave a melting point of 150 to 151 °C. Work on `O=C1Nc2ccccc2SC[C@@H]1N1C(=O)c2ccccc2C1=O` yielded a melting point of 202 to 205 °C. `Nc1ncnc2c1c(-c1ccc(Oc3ccccc3)cc1)cn2C1CCC(=O)CC1` gave a melting point of 252 to 254 °C. Molecule `CCC(CC)n1ncn(-c2ccc(N3CCN([C@H](C)[C@@](O)(Cn4cncn4)c4ccc(F)cc4F)CC3)cc2)c1=O` has a melting point of 110 to 113 °C. `N#CN1CCSC1=NC1CCc2ccccc21` (stereo not drawn) gave a melting point of 90 to 91 °C. With `CCCOC(=O)C1CCC2C3CCC4CC(O)C(O)CC4(C)C3C(NCCC(C)C)CC12C` (stereo not drawn) the melting point was 140 to 142 °C. Molecule `COCN1C(=O)C(=C/c2ccccc2)/C(=C\c2cc(OC)c(OC)c(OC)c2)C1=O` has a melting point of 127 to 128 °C. With `O=Cc1coc2cc3c(cc2c1=O)OCO3` the melting point was 232 to 233 °C. Work on `CC(=NC(C#N)=C(N)C#N)c1ccc(Cl)cc1` yielded a melting point of 154 to 156 °C. Work on `CCc1cccc(NC(=O)NCC(=O)N(CC(=O)N(C)c2ccccc2)c2ccccc2)c1` yielded a melting point of 105 °C. In the case of `Cc1cc(Oc2c(Cl)cc(C(F)(F)F)cc2Cl)n[nH]1`, the melting point is reported as 153 to 155 °C. Molecule `FC(F)(F)c1sc(S)nc1Cl` has a melting point of 142 to 144 °C. For `CC(C)CC1CCN(CCc2ccccc2)C1=O` (stereo not drawn), the melting point was 69 to 71 °C. For `Oc1ccc2c(c1O)Cc1cccc3c1C2CNC3` (stereo not drawn), the melting point was 175 to 176 °C. Work on `CCCC(CCC)n1nnc2c(Nc3c(Cl)cc(OC)cc3OC)nc(C)cc21` yielded a melting point of 157 to 158 °C. With `CCOC(=O)Nc1ccc(OC)c(OC)c1C=O` the melting point was 86 to 88 °C. Molecule `Nc1cc2n(n1)CCOC2` has a melting point of 74 to 76 °C. Molecule `Cc1nnc(-c2ccc3ncn(-c4cccc(C(F)(F)F)c4)c3c2)o1` has a melting point of 212 to 213 °C. With `CC(=O)NCc1ccc2c(c1)N(C1CCN(CCc3ccc(F)cc3)CC1)CC2` the melting point was 160 to 162 °C. For `CCCCc1ncc(/C=C(\Cc2ccccc2)C(=O)O)n1Cc1c(F)cccc1Cl`, the melting point was 204 to 206 °C. Molecule `CCCC(CO)n1cnc(C(N)=O)c1` (stereo not drawn) has a melting point of 160 °C. With `Cc1nc2c(N)nc3ccccc3c2n1CCOCCN` the melting point was 155 to 157 °C. With `CC(C)(C)c1cc(Cn2nc(-c3ccccc3)oc2=S)cc(C(C)(C)C)c1O` the melting point was 166 °C. Molecule `O=C1c2ccc(Cl)cc2C(=O)N1CC(=O)N1c2ccccc2N(Cc2ccccc2)C(=O)[C@H]2CCC[C@H]21` (relative stereo) has a melting point of 237 to 238 °C. `Cn1nnc2ccc(C(c3ccc(Cl)cc3)n3cncn3)cc21` (stereo not drawn) showed a melting point of 130 to 135 °C. With `c1csc(-c2ccc(-c3cn([C@H]4CN5CCC4CC5)nn3)cc2)c1` the melting point was 214 °C. For `Cc1cc(Cl)ccc1N1CN(C)CN(C)C1=S`, the melting point was 103 to 105 °C. `Oc1ccc2ccc(-c3ccccc3)cc2c1` showed a melting point of 205 °C. For `Cc1ccc(-c2nc(N3CCN(C)CC3)c3c(C)c(C#N)sc3n2)cc1`, the melting point was 207 to 209 °C. In the case of `O=C(Nc1ccc2[nH]c(=O)sc2c1)C(=O)N1CCC(Cc2ccc(F)cc2)CC1`, the melting point is reported as 224 to 226 °C. With `CC[C@H](C1CC1)n1cc(Cl)nc(N2CCc3cc(Cl)cc(Cl)c32)c1=O` the melting point was 157 to 159 °C. `COc1ccc(CCOc2cncc(Cl)c2)cc1OC` gave a melting point of 101 to 102 °C. `Fc1ccc(-n2nc(N3CCNCC3)c3ccccc32)cc1` gave a melting point of 85 to 87 °C. `CC(C)Cn1nc(-c2ccc(F)cc2F)cc(COS(C)(=O)=O)c1=O` showed a melting point of 86.7 to 88.6 °C. Work on `CCCc1nn(C)c2c(NCc3ccc4c(c3)OCO4)nc(-c3ccc(C(=O)O)cc3)nc12` yielded a melting point of 114 °C. `CCN(CC)CCNc1nc2cccnc2n(-c2ccc(C)cc2)c1=O` showed a melting point of 131 to 132 °C. Molecule `Clc1ccc(C2=CCCC2)cc1` has a melting point of 71 to 73 °C. In the case of `Clc1ccc2c(c1)C(c1ccccc1)=NCCN2C1=NCCO1`, the melting point is reported as 125 to 126 °C. `CCCc1c(OCCCCCCc2ccc(C(C)(C)C)c(OC)c2OC)ccc(C(=O)OCc2ccccc2)c1O` showed a melting point of 106 to 108 °C. With `COc1cc(-c2csc(NCCCCCC(=O)Nc3ccc(C(F)(F)F)cc3)n2)cc([N+](=O)[O-])c1O` the melting point was 160 to 162 °C. `O=S(=O)(c1ccc(Br)s1)N1CCN(c2ccc(F)cc2)CC1` gave a melting point of 123 to 124 °C. Molecule `CS(=O)(=O)Nc1ccc(-c2ccc(C(=O)O)c(=O)[nH]2)cc1` has a melting point greater than 320 °C. `N#Cc1cccnc1N1CCN(CC(=O)Nc2cccc(Cl)c2)CC1` showed a melting point of 108 to 109 °C. `CS(=O)(=O)O[C@H]1CCNC1=O` showed a melting point of 122 to 124 °C. In the case of `Cc1ccc(S(=O)(=O)OCC2(F)CCN(C(=O)c3ccc(F)c(Cl)c3)CC2)cc1`, the melting point is reported as 92 °C. Work on `CN1Cc2c(Cl)ncn2-c2cccc(Cl)c2C1=O` yielded a melting point of 211 to 212 °C.
